US11707474B2, “Methods for treating acute myeloid leukemia and related conditions” (GlycoMimetics, Inc., priority 2018, dated 2023)

What was measured:
[1] = 5-FU induced mucositis assay; assay type: in vivo, Mice (C57bl/6); settings: 20 mg/kg IP BID 4 days after second 5-FU injection
Description: Mice (C57bl/6) were treated with 150 mg/kg of 5-fluorouracil (5-FU) intraperitoneal (IP) on days 0 and 10. After the second injection of 5-FU, the mice were treated with a compound of Formula (I) (20 mg/kg in saline, IP, BID (i.e. 40 mg/kg per day)) or saline alone (0.15 M NaCl) for 4 days. Mice were then sacrificed and the small intestines were removed and weighed to determine the degree of inflammation. […] FIG. 1B illustrates that intestinal erosion, villous loss, and macrophage infiltration after administration of chemotherapy were ameliorated by concurrent administration of a compound of Formula (I).

[2] = system: MLL-AF9-induced AML leukemia; assay: Syngeneic MLL-AF9 induced AML leukemia survival model; assay type: in vivo, mice; settings: 40 mg/kg BID 10 days with cytarabine/DOX
Description: The impact of a compound of Formula (I) when administered adjunctively with cytarabine/DOX chemotherapy was evaluated in the syngeneic MLL-AF9 induced AML leukemia model.
Bone marrow from mice bearing MLL-AF9-inducted leukemia was harvested and enriched for kit+ cells and frozen in aliquots for subsequent transplant. Recipient mice were then injected with 3×10^4 leukemic cells 2 days after conditioning (Study day 0). Six days after leukemic injection, mice were randomized into 3 groups (n=8/group): a group administered a compound of Formula (I) at 40 mg/kg BID (i.e. 80 mg/kg per day) for 10 days, a group administered cytarabine/DOX (cytarabine at 100 mg/kg QD for 5 days, DOX at 1 mg/kg QD for 2 days), and a group administered a combined regimen of cytarabine/DOX/compound of Formula (I).

[3] = system: acute myeloid leukemia (AML); assay: Clinical outcomes, newly diagnosed older AML subjects, sodium salt infusion with 7+3; assay type: in vivo, human; settings: newly diagnosed AML ≥60 y
Description: In this study, 25 human subjects who were newly diagnosed at age 60 or older with acute myeloid leukemia (AML) were selected for this study. Subjects were not disqualified for prior treatment or diagnosis for MDS or CMML.
Each subject received a total of 19 infusions of 10 mg/kg/dose of the compound of Formula (I), administered as the sodium salt, over 10 days with a nominal infusion duration of 20 minutes. The formulation for the infusion solution was as follows: […]
The first dose of a compound of Formula (I) was administered 24 hours±1 hour prior to the first dose of 7+3 (cytarabine and idarubicin) chemotherapy as a sentinel dose to evaluate the effect of the compound of Formula (I) alone (i.e., a single dose of 10 mg/kg the day before the first chemotherapy day). The compound of Formula (I) was then administered every 12 hours±1 hour on chemotherapy days (i.e., 20 mg/kg per day on chemotherapy days) and for two days following the last dose of chemotherapy. […] 7+3 (cytarabine and idarubicin) chemotherapy was administered on Days 2-8 comprising a continuous IV infusion of cytarabine 100 mg/m^2/d over seven days (168 hours, from days 2-8), and idarubicin 12 mg/m^2/d IV for the first three consecutive days ([…], from days 2-4).
The clinical outcome for each subject was assessed at the time of count recovery following completion of induction chemotherapy. Subjects were assigned to one of four response groups: complete remission (“CR”); complete remission with incomplete count recovery (“CRi”); morphologic leukemia-free state (“MLFS”); persistent disease (“PD”). Complete remission was defined as bone marrow blasts <5%; absence of circulating blasts and blasts with Auer rods; absence of extramedullary disease; ANC ≥1.0×10^9/L and platelets ≥100,000×10^9/L. Complete remission with incomplete recovery was defined as: all CR criteria except for residual neutropenia (<1.0×10^9/L) or thrombocytopenia (<100,000×10^9/L). Morphologic leukemia-free state was defined as: bone marrow blasts <5%; absence of blasts with Auer rods; absence of extramedullary disease; no hematologic recovery required. Persistent disease was defined as: bone marrow blasts >5%.

[4] = Radiation induced mucositis assay; assay type: in vivo, Mice (C57bl/6); settings: 8.0 Gy whole body irradiation; 20 mg/kg IP BID 6 days
Description: Mice (C57bl/6) were subjected to whole body irradiation (8.0 Gy) and immediately afterwards treated with a compound of Formula (I) (20 mg/kg in saline, IP, BID (i.e. 40 mg/kg per day)) or saline alone (0.15 M NaCl) for 6 days. The small intestine was removed at day 6 and digested to release cells. The number of CD11b^+F4/80^+ macrophages from the small intestine was determined by flow cytometry (FIG. 2).

[5] = system: relapsed/refractory (R/R) AML; assay: Exposure-response analysis for efficacy; assay type: in vivo, human; settings: 46 R/R AML subjects; 5, 10, 20 mg/kg BID with MEC
Description: To generate exposure metrics for the analyses in Example 14 and Example 15, a Pop-PK analysis, based on sampling of plasma concentrations (Cp) of the compound of Formula (I) during induction treatment, was conducted to identify an appropriate PK model, key covariates of the model, and to generate post hoc population PK metrics for all patients sampled for PK. The Pop-PK analysis comprised 59 subjects, 46 subjects diagnosed with relapsed/refractory (R/R) AML who were administered a compound of Formula (I) with MEC chemotherapy and 13 older subjects (aged 60 years or older) with newly diagnosed AML who were administered a compound of Formula (I) with 7+3 chemotherapy. Pop-PK modeling identified a three compartment model with renal function as the only significant covariate.
For Example 14, Exposure-Response (“E-R”) analysis evaluating efficacy measures against PK metrics was conducted using clinical response efficacy data from the 46 R/R AML subjects. R/R AML subjects were administered MEC chemotherapy and 5, 10, and 20 mg/kg of a compound of Formula (I) BID (i.e. 10, 20, and 40 mg/kg per day).
Exposure metrics were generated using the Pop-PK model described above.
Using clinical measures of efficacy described in Example 13 each subject was assigned to one of five clinical response categories: CR, CRi, MLFS, PD, and death. […]

[6] = system: human AML blasts; assay: Orthotopic model of human AML with cytarabine and DNR; assay type: in vivo, NOD-SCID mice
Description: The impact of a compound of Formula (I) on survival was evaluated in NOD-SCID mice in an orthotopic model of human AML in combination with cytarabine and DNR.
10 mg/kg per day was identified as the minimally active murine dose that augmented cytarabine and DNR survival benefits.

CC[C@@H]1CC(C(=O)NCCNC(=O)CCOCCOCCOCCOCCOCCOCCOCCOCCOCCOCCOCCOC)C[C@@H](O[C@@H]2O[C@@H](CO)[C@H](O)C(O[C@@H](CC3CCCCC3)C(=O)O)C2NC(C)=O)C1OC1O[C@@H](C)C(O)[C@H](O)[C@@H]1O (stereo partly drawn) [compound of Formula (I)]
gastrointestinal mucositis as measured by intestinal weight [1]: protects against chemotherapy induced gastrointestinal mucositis | intestinal erosion, villous loss, and macrophage infiltration [1]: ameliorated | MST [2]: 41 days | increased lifespan [2]: 64% | one-year overall survival rate, all subjects [3]: 52% | one-year survival rate, MRD negative subjects [3]: 60% | severe oral mucositis rate [3]: 0% | median event-free survival ([3]; 95% CI 3-12.6): 9.2 months | median overall survival ([3]; 95% CI lower 9.9): 12.6 months | Oral Mucositis Events Grades 3/4 ([3]; N = 25): 0 n | CD11b+F4/80+ macrophages in small intestine [4]: decreased migration of inflammatory macrophages to the intestines | exposure-response for remission (Fx > IC50, Fx > IC90, Cmax, AUC vs response category) [5]: significant overlap in all exposure-response metrics relating to remission for those subjects attaining CR and those with PD | tumor cell chemosensitivity as determined by circulating leukemic cells ([6]; 5 mg/kg BID 10 days with cytarabine and DNR): marked enhancement of tumor cell chemosensitivity | numbers of AML blasts vs cytarabine and DNR alone ([6]; 40 mg/kg with cytarabine and DNR): fewer numbers of AML blasts | minimally active murine dose that augmented cytarabine and DNR survival benefits ([6]; with cytarabine and DNR): 10 mg/kg per day
